Results reported in ChEMBL document CHEMBL1201861, “Genomics of Drug Sensitity in Cancer screening data, Wellcome Trust Sanger Institute”.
Structures can show the parent of a compound that is named as a salt.

What was measured:
COLO-792 = experiment: cells; format: functional, cell-based, Homo sapiens; conditions: Homo sapiens, COLO-792
Description: SANGER: Inhibition of human COLO-792 cell growth in a cell viability assay.

DK-MG = experiment: cells; format: functional, cell-based, Homo sapiens; conditions: Homo sapiens, DK-MG;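 note: growth inhibition of DK-MG cells, read out with a cell viability assay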
Description: SANGER: Inhibition of human DK-MG cell growth in a cell viability assay.

DMS-273 = experiment: cells; format: functional, cell-based, Homo sapiens; conditions: Homo sapiens, DMS-273
Description: SANGER: Inhibition of human DMS-273 cell growth in a cell viability assay.

DU-145 = experiment: cells; format: functional, cell-based, Homo sapiens; conditions: Homo sapiens, DU-145
Description: SANGER: Inhibition of human DU-145 cell growth in a cell viability assay.

DoTc2-4510 = experiment: cells; format: functional, cell-based, Homo sapiens; conditions: Homo sapiens, DoTc2-4510
EFO-27 = experiment: cells; format: functional, cell-based, Homo sapiens; conditions: Homo sapiens, EFO-27;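 note: growth inhibition of EFO-27 cells, read out with a cell viability assay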
Description: SANGER: Inhibition of human EFO-27 cell growth in a cell viability assay.

FaDu = experiment: cells; format: functional, cell-based, Homo sapiens; conditions: Homo sapiens, FaDu;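 note: cell viability readout of growth inhibition in FaDu cells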
Description: SANGER: Inhibition of human FADU cell growth in a cell viability assay.

G-361 = experiment: cells; format: functional, cell-based, Homo sapiens; conditions: Homo sapiens, G-361
G-402 = experiment: cells; format: functional, cell-based, Homo sapiens; conditions: Homo sapiens, G-402
Description: SANGER: Inhibition of human G-402 cell growth in a cell viability assay.

HCC38 = experiment: cells; format: functional, cell-based, Homo sapiens; conditions: Homo sapiens, HCC38;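 note: cell viability assay on the human HCC38 cell line, with IC50 marking the concentration that inhibits cell growth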
Description: SANGER: Inhibition of human HCC38 cell growth in a cell viability assay.

HCC70 = experiment: cells; format: functional, cell-based, Homo sapiens; conditions: Homo sapiens, HCC70;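 note: cell viability assay measuring how strongly the compound suppresses proliferation of HCC70 cells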
Description: SANGER: Inhibition of human HCC70 cell growth in a cell viability assay.

HEC-1 = experiment: cells; format: functional, cell-based, Homo sapiens; conditions: Homo sapiens, HEC-1;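 note: growth inhibition of the cell line, read out with a cell viability assay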
Description: SANGER: Inhibition of human HEC-1 cell growth in a cell viability assay.

HOS = experiment: cells; format: functional, cell-based, Homo sapiens; conditions: Homo sapiens, HOS;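 note: growth inhibition of human HOS cells, read out with a cell viability assay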
Description: SANGER: Inhibition of human HOS cell growth in a cell viability assay.

IST-SL2 = experiment: cells; format: functional, cell-based, Homo sapiens; conditions: Homo sapiens, IST-SL2;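 note: growth inhibition of human IST-SL2 cells, read out by a cell viability assay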
Description: SANGER: Inhibition of human IST-SL2 cell growth in a cell viability assay.

Kasumi 1 = experiment: cells; format: functional, cell-based, Homo sapiens; conditions: Homo sapiens, Kasumi 1;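 note: growth inhibition of human Kasumi-1 cells, read out by a cell viability assay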
Description: SANGER: Inhibition of human KASUMI-1 cell growth in a cell viability assay.

KYSE-450 = experiment: cells; format: functional, cell-based, Homo sapiens; conditions: Homo sapiens, KYSE-450;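 note: cell growth inhibition measured by a viability assay in human KYSE-450 cells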
Description: SANGER: Inhibition of human KYSE-450 cell growth in a cell viability assay.

LCLC-97TM1 = experiment: cells; format: functional, cell-based, Homo sapiens; conditions: Homo sapiens, LCLC-97TM1;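 note: cell viability assay measuring growth inhibition of human LCLC-97TM1 cells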
Description: SANGER: Inhibition of human LCLC-97TM1 cell growth in a cell viability assay.

MC-CAR = experiment: cells; format: functional, cell-based, Homo sapiens; conditions: Homo sapiens, MC-CAR;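 note: growth inhibition of the human MC-CAR cell line, read out by a cell viability assay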
Description: SANGER: Inhibition of human MC-CAR cell growth in a cell viability assay.

MDA-MB-231 = experiment: cells; format: functional, cell-based, Homo sapiens; conditions: Homo sapiens, MDA-MB-231
Description: SANGER: Inhibition of human MDA-MB-231 cell growth in a cell viability assay.

MDA-MB-415 = experiment: cells; format: functional, cell-based, Homo sapiens; conditions: Homo sapiens, MDA-MB-415
MDA-MB-453 = experiment: cells; format: functional, cell-based, Homo sapiens; conditions: Homo sapiens, MDA-MB-453
Description: SANGER: Inhibition of human MDA-MB-453 cell growth in a cell viability assay.

MFE-280 = experiment: cells; format: functional, cell-based, Homo sapiens; conditions: Homo sapiens, MFE-280;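 note: growth inhibition of MFE-280 cells, determined with a cell viability readout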
Description: SANGER: Inhibition of human MFE-280 cell growth in a cell viability assay.

NB1 = experiment: cells; format: functional, cell-based, Homo sapiens; conditions: Homo sapiens, NB1;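 note: reduction of NB1 cell proliferation, read out with a viability assay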
Description: SANGER: Inhibition of human NB1 cell growth in a cell viability assay.

NCCIT = experiment: SANGER: Inhibition of human NCCIT cell growth in a cell viability assay.; format: functional, cell-based; conditions: Homo sapiens, NCCIT
NCI-H1755 = experiment: cells; format: functional, cell-based, Homo sapiens; conditions: Homo sapiens, NCI-H1755;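 note: cell viability readout used to measure growth inhibition of NCI-H1755 cells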
Description: SANGER: Inhibition of human NCI-H1755 cell growth in a cell viability assay.

NCI-H2170 = experiment: cells; format: functional, cell-based, Homo sapiens; conditions: Homo sapiens, NCI-H2170;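 note: cell viability assay measuring growth inhibition of human NCI-H2170 cancer cells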
Description: SANGER: Inhibition of human NCI-H2170 cell growth in a cell viability assay.

NCI-H358 = experiment: cells; format: functional, cell-based, Homo sapiens; conditions: Homo sapiens, NCI-H358;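 note: growth inhibition of NCI-H358 human cells, read out with a cell viability assay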
Description: SANGER: Inhibition of human NCI-H358 cell growth in a cell viability assay.

NCI-H520 = experiment: cells; format: functional, cell-based, Homo sapiens; conditions: Homo sapiens, NCI-H520;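 note: growth inhibition of NCI-H520 cells, measured by a cell viability assay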
Description: SANGER: Inhibition of human NCI-H520 cell growth in a cell viability assay.

NCI-H596 = experiment: cells; format: functional, cell-based, Homo sapiens; conditions: Homo sapiens, NCI-H596;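 note: growth inhibition of NCI-H596 cells, read out with a cell viability assay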
Description: SANGER: Inhibition of human NCI-H596 cell growth in a cell viability assay.

NCI-H661 = experiment: cells; format: functional, cell-based, Homo sapiens; conditions: Homo sapiens, NCI-H661;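 note: cell viability assay read-out, IC50 being the concentration that inhibits growth of the cells by half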
Description: SANGER: Inhibition of human NCI-H661 cell growth in a cell viability assay.

NCI-H889 = experiment: cells; format: functional, cell-based, Homo sapiens; conditions: Homo sapiens, NCI-H889;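 note: cell growth inhibition of the cell line, read out with a viability assay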
Description: SANGER: Inhibition of human NCI-H889 cell growth in a cell viability assay.

SNU-16 = experiment: cells; format: functional, cell-based, Homo sapiens; conditions: Homo sapiens, SNU-16;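 note: growth inhibition of human SNU-16 cells, determined with a cell viability readout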
Description: SANGER: Inhibition of human NCI-SNU-16 cell growth in a cell viability assay.

OVCAR-3 = experiment: cells; format: functional, cell-based, Homo sapiens; conditions: Homo sapiens, OVCAR-3;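 note: growth inhibition of human OVCAR-3 cells, determined by a cell viability assay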
Description: SANGER: Inhibition of human OVCAR-3 cell growth in a cell viability assay.

P12-Ichikawa = experiment: cells; format: functional, cell-based, Homo sapiens; conditions: Homo sapiens, P12-Ichikawa
RO82-W-1 = experiment: cells; format: functional, cell-based, Homo sapiens; conditions: Homo sapiens, RO82-W-1;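 note: growth inhibition of human RO82-W-1 cells, measured with a cell viability assay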
Description: SANGER: Inhibition of human RO82-W-1 cell growth in a cell viability assay.

SCC-4 = experiment: cells; format: functional, cell-based, Homo sapiens; conditions: Homo sapiens, SCC-4;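 note: growth inhibition of human SCC-4 cells, read out as cell viability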
Description: SANGER: Inhibition of human SCC-4 cell growth in a cell viability assay.

SNU-C1 = experiment: cells; format: functional, cell-based, Homo sapiens; conditions: Homo sapiens, SNU-C1;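 note: growth inhibition of SNU-C1 human cells, read out by a cell viability assay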
Description: SANGER: Inhibition of human SNU-C1 cell growth in a cell viability assay.

A-431 = experiment: cells; format: functional, cell-based, Homo sapiens; conditions: Homo sapiens, A-431;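 note: growth inhibition of A-431 cells, determined with a cell viability read-out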
Description: SANGER: Inhibition of human A431 cell growth in a cell viability assay.

CAL-27 = experiment: cells; format: functional, cell-based, Homo sapiens; conditions: Homo sapiens, CAL-27;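 note: Viability-based readout, IC50 reflecting inhibition of CAL-27 cell growth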
Description: SANGER: Inhibition of human CAL-27 cell growth in a cell viability assay.

THP-1 = experiment: cells; format: functional, cell-based, Homo sapiens; conditions: Homo sapiens, THP-1;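 note: growth inhibition of THP-1 cells, read out via a cell viability assay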
Description: SANGER: Inhibition of human THP-1 cell growth in a cell viability assay.

TUR = experiment: cells; format: functional, cell-based, Homo sapiens; conditions: Homo sapiens, TUR;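 note: growth inhibition of human TUR cells, read out with a cell viability assay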
Description: SANGER: Inhibition of human TUR cell growth in a cell viability assay.

U-698-M = experiment: cells; format: functional, cell-based, Homo sapiens; conditions: Homo sapiens, U-698-M
Description: SANGER: Inhibition of human U-698-M cell growth in a cell viability assay.

YAPC = experiment: cells; format: functional, cell-based, Homo sapiens; conditions: Homo sapiens, YAPC;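 note: growth inhibition of YAPC cells, measured with a cell viability assay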
Description: SANGER: Inhibition of human YAPC cell growth in a cell viability assay.

CAMA-1 = experiment: cells; format: functional, cell-based, Homo sapiens; conditions: Homo sapiens, CAMA-1;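 note: growth inhibition of CAMA-1 cells, read out with a cell viability assay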
Description: SANGER: Inhibition of human CAMA-1 cell growth in a cell viability assay.

CESS = experiment: SANGER: Inhibition of human CESS cell growth in a cell viability assay.; format: functional, cell-based; conditions: Homo sapiens, CESS
CHL-1 = experiment: cells; format: functional, cell-based, Homo sapiens; conditions: Homo sapiens, CHL-1;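 note: cell growth inhibition, read out with a cell viability assay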
Description: SANGER: Inhibition of human CHL-1 cell growth in a cell viability assay.

COLO-680N = experiment: cells; format: functional, cell-based, Homo sapiens; conditions: Homo sapiens, COLO-680N;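 note: cell viability assay used to measure inhibition of COLO-680N cell growth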
Description: SANGER: Inhibition of human COLO-680N cell growth in a cell viability assay.

N#Cc1c(O)c2c(-c3ccc(-c4ccccc4O)cc3)csc2[nH]c1=O
IC50 (COLO-792): > 1020 nM
IC50 (DK-MG): > 1020 nM
IC50 (DMS-273): > 1020 nM
IC50 (DU-145): > 1020 nM
IC50 (DoTc2-4510): > 1020 nM
IC50 (EFO-27): > 1020 nM
IC50 (FaDu): > 1020 nM
IC50 (G-361): 88.1 nM
IC50 (G-402): > 1020 nM
IC50 (HCC38): > 1020 nM
IC50 (HCC70): > 1020 nM
IC50 (HEC-1): > 1020 nM
IC50 (HOS): > 1020 nM
IC50 (IST-SL2): > 1020 nM
IC50 (Kasumi 1): 41.8 nM
IC50 (KYSE-450): > 1020 nM
IC50 (LCLC-97TM1): > 1020 nM
IC50 (MC-CAR): 172 nM
IC50 (MDA-MB-231): > 1020 nM
IC50 (MDA-MB-415): > 1020 nM
IC50 (MDA-MB-453): > 1020 nM
IC50 (MFE-280): > 1020 nM
IC50 (NB1): > 1020 nM
IC50 (NCCIT): > 1020 nM
IC50 (NCI-H1755): > 1.02 µM
IC50 (NCI-H2170): > 1020 nM
IC50 (NCI-H358): > 1020 nM
IC50 (NCI-H520): > 1020 nM
IC50 (NCI-H596): > 1020 nM
IC50 (NCI-H661): > 1020 nM
IC50 (NCI-H889): > 1.02 µM
IC50 (SNU-16): > 1.02 µM
IC50 (OVCAR-3): > 1020 nM
IC50 (P12-Ichikawa): 489 nM
IC50 (RO82-W-1): > 1020 nM
IC50 (SCC-4): > 1020 nM
IC50 (SNU-C1): > 1.02 µM
IC50 (A-431): 29.2 nM
IC50 (CAL-27): > 1020 nM
IC50 (THP-1): 342 nM
IC50 (TUR): 345 nM
IC50 (U-698-M): 219 nM
IC50 (YAPC): > 1.02 µM
IC50 (CAMA-1): > 1020 nM
IC50 (CESS): 101 nM
IC50 (CHL-1): > 1020 nM
IC50 (COLO-680N): > 1020 nM

COC1=CC(c2cc3ccccc3[nH]2)=N/C1=C\c1[nH]c(C)cc1C [OBATOCLAX MESYLATE]
IC50 (COLO-792): 132 nM
IC50 (DK-MG): 710 nM
IC50 (DMS-273): 28.5 nM
IC50 (DU-145): 467 nM
IC50 (DoTc2-4510): 33.9 nM
IC50 (EFO-27): 340 nM
IC50 (FaDu): 426 nM
IC50 (G-361): < 62.5 nM
IC50 (G-402): 565 nM
IC50 (HCC38): 2380 nM
IC50 (HCC70): 1460 nM
IC50 (HEC-1): 36.8 nM
IC50 (HOS): 34.7 nM
IC50 (IST-SL2): 94.7 nM
IC50 (KYSE-450): < 62.5 nM
IC50 (LCLC-97TM1): 55.9 nM
IC50 (MC-CAR): 23.6 nM
IC50 (MDA-MB-231): 801 nM
IC50 (MDA-MB-415): 2180 nM
IC50 (MDA-MB-453): 2230 nM
IC50 (MFE-280): 963 nM
IC50 (NB1): 279 nM
IC50 (NCCIT): 1380 nM
IC50 (NCI-H1755): 5.23 µM
IC50 (NCI-H2170): 683 nM
IC50 (NCI-H358): 78.8 nM
IC50 (NCI-H520): 129 nM
IC50 (NCI-H596): 236 nM
IC50 (NCI-H661): 1300 nM
IC50 (NCI-H889): > 16 µM
IC50 (SNU-16): 13.1 µM
IC50 (OVCAR-3): 516 nM
IC50 (P12-Ichikawa): 73.5 nM
IC50 (RO82-W-1): 2410 nM
IC50 (SCC-4): 2140 nM
IC50 (SNU-C1): > 16 µM
IC50 (A-431): 88 nM
IC50 (CAL-27): 64.6 nM
IC50 (THP-1): 20 nM
IC50 (TUR): 1160 nM
IC50 (U-698-M): 94.1 nM
IC50 (YAPC): 5.99 µM
IC50 (CAMA-1): 436 nM
IC50 (CESS): 82.7 nM
IC50 (CHL-1): 48.6 nM
IC50 (COLO-680N): 50.5 nM
